Laboratory results: patent US11274111B2, “Arginase inhibitors and methods of use” (Merck Sharp & Dohme Corp., priority 2018, dated 2022)
pIC50: −log10 of the molar value. Where a name gives a salt, the structure may show the parent alone. Read-outs that look alike come from different tables or passages of the source.

Target: T1, Arginase (Homo sapiens, UniProt P05089)
T1 construct: Arginase protein was recombinantly expressed in Escherichia coli
T1 sequence (P05089 1-322): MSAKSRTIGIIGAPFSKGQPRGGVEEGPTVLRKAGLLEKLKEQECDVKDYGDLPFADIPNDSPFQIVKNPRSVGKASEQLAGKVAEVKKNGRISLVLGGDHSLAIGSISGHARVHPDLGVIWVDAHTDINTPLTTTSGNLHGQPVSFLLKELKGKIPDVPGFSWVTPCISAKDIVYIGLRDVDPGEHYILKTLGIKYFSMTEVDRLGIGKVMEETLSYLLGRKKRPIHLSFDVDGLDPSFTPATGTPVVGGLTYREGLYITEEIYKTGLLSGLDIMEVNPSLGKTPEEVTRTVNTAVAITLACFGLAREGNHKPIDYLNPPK
Assay: Arginase Thioornithine Generating Assay (TOGA)
Assay type: biochemical
Conditions: for pIC50: recombinant arginase 1.88 nM, thioarginine substrate; for inhibition at 100 µM: Top Dose 100000 nM; for inhibition at 16 µM: Top Dose 16000 nM
Experimental: Arginase Thioornithine Generating Assay (TOGA)
Compounds were serially diluted in ten 3-fold steps in DMSO starting from 10 mM DMSO stocks. Compound dilutions or DMSO alone were then dispensed from the dilution plate into a Greiner black 384-well assay plate (catalog #781086) using an Echo 555 acoustic liquid handler (Labcyte).
Arginase protein was recombinantly expressed in Escherichia coli. Purified protein was then diluted in assay buffer (50 mM Tris pH 7.5, 50 mM NaCl, 1 mM manganese chloride, 0.05% bovine serum albumin to obtain a final Arginase concentration of 1.88 nM. Arginase solution (20 μL) or buffer alone (20 μL) were dispensed to wells of the assay plate using a BioRAPTR liquid dispenser (Beckman Coulter). Assay plates containing compound and arginase enzyme were incubated at room temperature for 30 minutes. Afterwards, 5 μL of 2.5 mM thioarginine (Cayman Chemicals) in assay buffer were added to each well of the assay plate using a BioRAPTR liquid dispenser. Plates were incubated at room temperature for 60 minutes and reactions were quenched by addition of 15 μL of 200 uM 7-Diethylamine-3-(4-maleimidophenyl)-4-methylcoumarin (Sigma Chemical) in 70% ethanol. Plates were briefly shaken to mix and the fluorescence was measured in an Spectramax plate reader (Molecular Devices) with a 410 nm excitation wavelength and an 490 nm emission wavelength.
Potencies were calculated by […] to the four parameter logistic IC50 equation.

[1] = Top Dose 10000 nM, read-out: Percent Inhibition at Top Dose
[2] = read-out: Percent Inhibition at Top Dose
[3] = read-out: Percent Inhibition at Top Dose, Top Dose 10000 nM

Compound	inhibition at 10 µM [1] [%]	also measured
CC(C)N1C[C@@H]2C[C@@](N)(C(=O)O)[C@@H](CCCB(O)O)[C@@H]2C1 [Example 8, (3aR,4S,5S,6aR)-5-amino-4-(3-boronopropyl)-2-isopropyloctahydrocyclopenta[c]pyrrole-5-carboxylic acid]	74.8	–
CCN1C[C@@H]2C[C@@](N)(C(=O)O)[C@@H](CCCB(O)O)[C@@H]2C1 [Example 12, (3aR,4S,5S,6aR)-5-amino-4-(3-boronopropyl)-2-ethyloctahydrocyclopenta[c]pyrrole-5-carboxylic acid]	85.3	–
NC1(C(=O)O)CC2(CNC2)CC1CCCB(O)O (stereo not drawn) [Example 35a, 6-amino-7-(3-boronopropyl)-2-azaspiro[3.4]octane-6-carboxylic acid]	99.7	pIC50: 6.63
N[C@@]1(C(=O)O)C[C@H]2CNC[C@H]2[C@@H]1CCCB(O)O [Example 1a]	–	inhibition at 100 µM [2]: 104%
CN1C[C@@H]2C[C@@](N)(C(=O)O)[C@@H](CCCB(O)O)[C@@H]2C1 [Example 2, (3aR,4S,5S,6aR)-5-amino-4-(3-boronopropyl)-2-methyloctahydrocyclopenta[c]pyrrole-5-carboxylic acid]	–	inhibition at 16 µM [2]: 82.6%; pIC50: 7.08
N=C(N)N1C[C@@H]2C[C@@](N)(C(=O)O)[C@@H](CCCB(O)O)[C@@H]2C1 (single isomer, unassigned) [Example 11a]	67.2	–
NC1(C(=O)O)C2CNC(C2)C1CCCB(O)O (stereo not drawn) [Example 24, 5-amino-6-(3-boronopropyl)-2-azabicyclo[2.2.1]heptane-5-carboxylic acid]	–	inhibition at 100 µM [2]: 95.9%
C[C@H](N)C(=O)N1C[C@@H]2C[C@@](N)(C(=O)O)[C@@H](CCCB(O)O)[C@@H]2C1 [Example 4, (3aR,4S,5S,6aR)-2-(L-alanyl)-5-amino-4-(3-boronopropyl)octahydrocyclopenta[c]pyrrole-5-carboxylic acid]	97.4	pIC50: 6.97
N[C@@]1(C(=O)O)C[C@H]2CNC[C@H]2[C@@H]1CCCB(O)O [Example 1f, (3aR,4S,5S,6aR)-5-amino-4-(3-boronopropyl)octahydrocyclopenta[c]pyrrole-5-carboxylic acid]	–	inhibition at 16 µM [2]: 87.8%
(1S,2S,3aR,5R,6R,6aR)-2-amino-1-(3-boronopropyl)-6-fluoro-5-(methylamino)octahydropentalene-2-carboxylate [Example 53b]	–	Percent Inhibition at Top Dose (Top Dose 10000 nM): 100%; pIC50: 8.16
(1S,2S,3aS,5S,6R,6aR)-2-amino-1-(3-boronopropyl)-6-fluoro-5-hydroxyoctahydropentalene-2-carboxylate [Example 52a]	–	Percent Inhibition at Top Dose (Top Dose 10000 nM): 96.25%; pIC50: 6.66
N[C@@]1(C(=O)O)C[C@H]2CNC[C@H]2[C@@H]1CCCB(O)O [Example 1e, (3aR,4S,5S,6aR)-5-amino-4-(3-boronopropyl)octahydrocyclopenta[c]pyrrole-5-carboxylic acid]	98.9	–
(1S,2S,3aS,5R,6R,6aR)-2-amino-1-(3-boronopropyl)-6-fluoro-5-hydroxyoctahydropentalene-2-carboxylate [Example 52b]	–	Percent Inhibition at Top Dose (Top Dose 10000 nM): 99.46%; pIC50: 7.43
N[C@]1(C(=O)O)[C@H](CCCB(O)O)C[C@H]2NCC[C@H]21 [Example 20b, (3aR,4R,5R,6aR)-4-amino-5-(3-boronopropyl)octahydrocyclopenta[b]pyrrole-4-carboxylic acid]	–	inhibition at 10 µM [3]: 101%
NC1(C(=O)O)C(CCCB(O)O)C[C@H]2NCC[C@H]21 (mixture of isomers) [Example 20f, (3aR,6aR)-4-amino-5-(3-boronopropyl)octahydrocyclopenta[b]pyrrole-4-carboxylic acid]	–	inhibition at 10 µM [3]: 99.2%
NC1(C(=O)O)CC2(CNC2)CC1CCCB(O)O (single isomer, unassigned) [Example 35c, 6-amino-7-(3-boronopropyl)-2-azaspiro[3.4]octane-6-carboxylic acid]	82.3	–
NC1(C(=O)O)C[C@H]2CNC[C@H]2C1CCCB(O)O (relative stereo) [Example 1, (3aR,6aR-rel-)-5-amino-4-(3-boronopropyl)octahydrocyclopenta[c]pyrrole-5-carboxylic acid]	–	inhibition at 100 µM [2]: 99.4%
N[C@@]1(C(=O)O)C[C@H]2CN(Cc3ccc(F)cc3)C[C@H]2[C@@H]1CCCB(O)O [Example 3, (3aR,4S,5S,6aR)-5-amino-4-(3-boronopropyl)-2-(4-fluorobenzyl)octahydrocyclopenta[c]pyrrole-5-carboxylic acid]	99.8	–

Continued, in another order:

inhibition at 10 µM [1] [%]	Compound	also measured
96.8	C[C@H](N)C(=O)N[C@H]1C[C@@H]2C[C@@](N)(C(=O)O)[C@@H](CCCB(O)O)[C@@H]2C1 [Example 46, (1S,2S,3aR,5S,6aR)-2-amino-5-((S)-2-aminopropanamido)-1-(3-boronopropyl)octahydropentalene-2-carboxylic acid]	pIC50: 6.28
88.6	NC(=O)CN1CC2CC(N)(C(=O)O)C(CCCB(O)O)C2C1 (stereo not drawn) [Example 15, 5-amino-2-(2-amino-2-oxoethyl)-4-(3-boronopropyl)octahydrocyclopenta[c]pyrrole-5-carboxylic acid]	–
94.7	NC1(C(=O)O)c2cccnc2CC1CCCB(O)O (stereo not drawn) [Example 39, 5-amino-6-(3-boronopropyl)-6,7-dihydro-5H-cyclopenta[b]pyridine-5-carboxylic acid]	–
22.2	NC1(C(=O)O)CC2CCCC2C1CCCB(O)O (stereo not drawn) [Example 34a, 2-amino-1-(3-boronopropyl)octahydropentalene-2-carboxylic acid]	–
99	CC(=O)N1C[C@@H]2CC(N)(C(=O)O)C(CCCB(O)O)[C@@H]2C1 (mixture of isomers) [Example 13a, rac-(3aR,6aR)-2-acetyl-5-amino-4-(3-boronopropyl)octahydrocyclopenta[c]pyrrole-5-carboxylic acid]	–
97.8	CN(C)[C@@H]1C[C@@H]2C[C@@](N)(C(=O)O)[C@@H](CCCB(O)O)[C@@H]2C1 [Example 50, (1S,2S,3aR,5R,6aR)-2-amino-1-(3-boronopropyl)-5-(dimethylamino)octahydropentalene-2-carboxylic acid]	–
93	NC1(C(=O)O)C(CCCB(O)O)C[C@H]2C[C@H]21 (relative stereo) [Example 36a, rel-(1R,5R)-2-amino-3-(3-boronopropyl)bicyclo[3.1.0]hexane-2-carboxylic acid]	–
86.5	N[C@@]1(C(=O)O)C[C@H]2C(=O)NC[C@H]2[C@@H]1CCCB(O)O (single isomer, unassigned) [Example 23a]	–
90.6	NC(=O)N1CC2CC(N)(C(=O)O)C(CCCB(O)O)C2C1 (single isomer, unassigned) [Example 17a, 5-amino-4-(3-boronopropyl)-2-carbamoyloctahydrocyclopenta[c]pyrrole-5-carboxylic acid]	–
98	NC1(C(=O)O)CC2(CCCN2)CC1CCCB(O)O (stereo not drawn) [Example 37a, rel-7-amino-8-(3-boronopropyl)-1-azaspiro[4.4]nonane-7-carboxylic acid]	–
100	NC1(C(=O)O)CC2CN(S(N)(=O)=O)CC2C1CCCB(O)O (single isomer, unassigned) [Example 18a, 5-amino-4-(3-boronopropyl)-2-sulfamoyloctahydrocyclopenta[c]pyrrole-5-carboxylic acid]	–
91.4	NC1(C(=O)O)C(CCCB(O)O)CC2NCCCC21 (stereo not drawn) [Example 40, 5-amino-6-(3-boronopropyl)octahydro-1H-cyclopenta[b]pyridine-5-carboxylic acid]	–
62.7	CN(C)C[C@]12C[C@H]1CC(CCCB(O)O)C2(N)C(=O)O (stereo partly drawn) [Example 33a, (1S,5R)-2-amino-3-(3-boronopropyl)-1-((dimethylamino)methyl)bicyclo[3.1.0]hexane-2-carboxylic acid]	–
97.1	N[C@@]1(C(=O)O)C[C@H]2C[C@@H](O)C[C@H]2[C@@H]1CCCB(O)O [Example 44a, (1S,2S,3aS,5R,6aR)-2-amino-1-(3-boronopropyl)-5-hydroxyoctahydropentalene-2-carboxylic acid]	pIC50: 6.59
38.8	N[C@@]1(C(=O)O)C[C@H]2CNC(=O)[C@H]2[C@@H]1CCCB(O)O (single isomer, unassigned) [Example 23b]	–
70	C[C@@H]1NC[C@@H]2CC(N)(C(=O)O)[C@@H](CCCB(O)O)C21 (stereo partly drawn) [Example 31b, (3aR,6S,6aR)-5-amino-6-(3-boronopropyl)-1-methyloctahydrocyclopenta[c]pyrrole-5-carboxylic acid, HFBA Salt]	–
